Measurements: US4946864A, “Novel HMG-CoA reductase inhibitors” (Merck & Co., Inc., priority 1988, dated 1990)

Target: T1, HMG-CoA reductase (Rattus norvegicus, UniProt P51639)
T1 construct: from tissue
T1 sequence (P51639 1-887): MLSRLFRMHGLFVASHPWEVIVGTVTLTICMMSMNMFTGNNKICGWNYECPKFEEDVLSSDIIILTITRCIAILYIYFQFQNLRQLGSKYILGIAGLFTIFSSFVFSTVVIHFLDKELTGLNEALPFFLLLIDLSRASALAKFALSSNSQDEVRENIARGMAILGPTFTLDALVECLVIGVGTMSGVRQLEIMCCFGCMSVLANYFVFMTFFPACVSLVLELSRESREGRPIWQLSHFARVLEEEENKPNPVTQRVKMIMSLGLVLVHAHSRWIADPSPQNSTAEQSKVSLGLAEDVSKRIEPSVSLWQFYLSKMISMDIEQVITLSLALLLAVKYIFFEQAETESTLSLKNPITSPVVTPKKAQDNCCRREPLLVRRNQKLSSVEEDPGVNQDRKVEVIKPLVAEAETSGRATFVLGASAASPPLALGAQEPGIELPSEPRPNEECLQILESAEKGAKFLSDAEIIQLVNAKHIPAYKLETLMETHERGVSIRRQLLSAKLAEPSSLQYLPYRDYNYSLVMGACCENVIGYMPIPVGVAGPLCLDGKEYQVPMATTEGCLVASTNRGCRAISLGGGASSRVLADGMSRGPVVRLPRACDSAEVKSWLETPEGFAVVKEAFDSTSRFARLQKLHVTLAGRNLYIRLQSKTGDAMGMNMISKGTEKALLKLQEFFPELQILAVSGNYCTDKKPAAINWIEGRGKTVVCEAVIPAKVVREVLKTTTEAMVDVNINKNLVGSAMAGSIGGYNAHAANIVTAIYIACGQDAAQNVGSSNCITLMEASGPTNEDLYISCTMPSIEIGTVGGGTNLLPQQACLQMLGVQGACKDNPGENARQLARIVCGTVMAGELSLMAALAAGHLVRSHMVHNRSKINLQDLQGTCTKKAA
Experiment: intrinsic HMG-CoA reductase inhibition, in vitro protocol of J. Med. Chem., 28, p. 347-358 (1985)
Assay type: biochemical
Settings: mevastatin assigned a value of 100; IC50 of test compound compared with that of mevastatin determined simultaneously
Description: The intrinsic HMG-CoA reductase inhibition activity of the claimed compounds is measured in the in vitro protocol published in J. Med. Chem., 28, p. 347-358 (1985). […] Tabulated below for a number of the claimed compounds are relative potencies which are representative of the intrinsic HMG-CoA reductase inhibitory activities of the claimed compounds.

Compound | Relative Potency
6(R)-[2-[(8(S)-(2-chlorobenzoyloxy)-2-(S),6(R)-dimethyl-1,2,6,7,8,8a(R)-hexahydronaphthyl-1-(S)]ethyl]-4(R)-hydroxy-3,4,5,6-tetahydro-2H pyran-2-one | 100
6(R)-[2-[8(S)-(2-methylthiobenzoyloxy)-2(S),6(R)-dimethyl-1,2,6,7,8,8a(R)- hexahydronaphthyl-1(S)]ethyl-4(R)-hydroxy-3,4,5,6-tetrahydro-2H-pyran-2-one | 54
6(R)-[2-[8(S)-(2-isopropylbenzoyloxy)-2(S),6(R) -dimethyl-1,2,6,7,8,8a(R)-hexahydronaphthyl-1(S)]ethyl-4(R)-hydroxy-3,4,5,6-tetrahydro-2H-pyran-2-one | 173
6(R)-[2-[8(S)-(2-methylbenzoyloxy) -2(S),6(R) -dimethyl-1,2,6,7,8,8a(R) -hexahydronaphthyl-1(S)]ethyl]-4(R)-hydroxy -3,4,5,6-tetrahydro-2H-pyran-2-one | 67
Cc1ccc(C)c(C(=O)O[C@H]2C[C@@H](C)C=C3C=C[C@H](C)[C@H](CC[C@@H]4C[C@@H](O)CC(=O)O4)[C@H]32)c1 | 67
6(R)-[2-[8(S)-(2-trifluormethyl-benzoyloxy)-2(S),6(R)-dimethyl-1,2,6,7,8,8a(R)-hexa-hydronaphthyl-1(S)]ethyl]-4(R)-hydroxy-3,4,5,6-tetrahydro-2H-pyran-2-one | 87
